According to patent US8541420B2, “Ketolide compounds having antimicrobial activity” (priority 2009, dated 2013):

Columns and labels:
S. pyogenes = assay: MIC by standard CLSI agar dilution method, macrolide sensitive and resistant S. pyogenes; format: cell-based; design: MIC S. pyogenes Ery Susc. (801) / MIC S. pyogenes HLermB (3530): unit not given beside the values; details: 18 hrs at 37° C.; for MIC S. pyogenes Ery Susc. (801): strain Ery Susc. (801); for MIC S. pyogenes HLermB (3530): strain HLermB (3530), HL is High level resistance; for MIC S. pyogenes ermTR (810/806): strain ermTR (810/806); for MIC S. pyogenes mefA (806/763): strain mefA (806/763)
Method: (§1) The antibacterial activities of ketolide compounds of invention were evaluated by determining the minimal inhibitory concentration (MIC) according to standard CLSI agar dilution method. The media used for preculture and main culture were Tryptic Soya broth (Difco) and Mueller Hinton medium (Difco), respectively. The Mueller Hinton agar was supplemented with 5% sheep blood for streptococci and pneumococci, and with haemoglobin as well as NAD (nicotinamide adenine dinucleotide) for Haemophilus influenzae, respectively. Overnight cultures were diluted with buffered saline (pH 7.2) to the final cell density of 5×10^6-10^7 CFU/ml, and each bacterial suspension was applied with a replicator (Denley's multipoint inoculator, UK) onto a series of Mueller-Hinton agar plates containing antibacterial agents at various concentrations. Final inoculum was approximately 10^4 CFU/spot. The plates were incubated for 18 hrs at 37° C. The MIC was defined as the lowest concentration of an antibacterial agent that inhibits the development of visible microbial growth on agar.

S. pneumoniae = assay: MIC by standard CLSI agar dilution method, macrolide sensitive and resistant S. pneumoniae; format: cell-based; details: 18 hrs at 37° C.; for MIC S. pneumoniae Ery Susc. (49619): strain Ery Susc. (49619); for MIC S. pneumoniae HL-ermB (3773): strain HL-ermB (3773), HL is High level resistance; for MIC S. pneumoniae ermB (786): strain ermB (786); for MIC S. pneumoniae mefA (772): strain mefA (772)
Method: as §1

Compound	MIC S. pyogenes Ery Susc. (801) (S. pyogenes)	MIC S. pyogenes HLermB (3530) (S. pyogenes)	MIC S. pyogenes ermTR (810/806) (S. pyogenes)	MIC S. pyogenes mefA (806/763) (S. pyogenes)	MIC S. pneumoniae Ery Susc. (49619) (S. pneumoniae)	MIC S. pneumoniae HL-ermB (3773) (S. pneumoniae)	MIC S. pneumoniae ermB (786) (S. pneumoniae)	MIC S. pneumoniae mefA (772) (S. pneumoniae)
CC[C@H]1OC(=O)[C@H](C)C(=O)[C@H](C)[C@@H](O[C@@H]2O[C@H](C)C[C@H](N(C)C)[C@H]2O)[C@](C)(OC)C[C@@H](C)C(=O)[C@H](C)[C@H]2N(CCCCn3cnc(-c4cccnc4)c3)C(=O)O[C@]12C [Telithromycin, reference compound]	0.03	16.0	0.03	0.06	0.007	4.0	0.5	1.0
(11S,21R)-3-Decladinosyl-11,12-dideoxy-6-O-methyl-3-oxo-12,11-{oxycarbonyl-[E-amino-(2-(pyrimidin-2-yl)-1,3,4-thiadiazol-5-yl-methyl)oxy-imino-methylene]}-erythromycin A [Example 2]	0.007	0.25	0.015	0.06	0.007	1.0	0.06	0.25
(11S, 21R)-3-Decladinosyl-11,12-dideoxy-6-O-methyl-3-oxo-12,11-{oxycarbonyl-[E-amino-(2-(pyridin-2-yl)-1,3,4-thiadiazol-5-yl-methyl)oxy-imino-methylene]}-erythromycin A [Example 1]	0.015	0.5	0.015	0.06	0.007	1.0	0.06	0.06
